Test results taken from ChEMBL document CHEMBL5154659, “A3 adenosine receptor agonists containing dopamine moieties for enhanced interspecies affinity” (Eur J Med Chem, 2022).
pEC50, pKi: −log10 of the molar value.

Experiments:
Adenosine receptor A1 = target: T1, Adenosine receptor A1 (Mus musculus, UniProt Q60612); experiment: Displacement of [3H] N6-R-phenylisopropyladenosine from mouse A1A receptor stably expressed in HEK293 cell membrane by radioligand inhibition assay; format: cell membranes
T1 sequence (Q60612 whole entry): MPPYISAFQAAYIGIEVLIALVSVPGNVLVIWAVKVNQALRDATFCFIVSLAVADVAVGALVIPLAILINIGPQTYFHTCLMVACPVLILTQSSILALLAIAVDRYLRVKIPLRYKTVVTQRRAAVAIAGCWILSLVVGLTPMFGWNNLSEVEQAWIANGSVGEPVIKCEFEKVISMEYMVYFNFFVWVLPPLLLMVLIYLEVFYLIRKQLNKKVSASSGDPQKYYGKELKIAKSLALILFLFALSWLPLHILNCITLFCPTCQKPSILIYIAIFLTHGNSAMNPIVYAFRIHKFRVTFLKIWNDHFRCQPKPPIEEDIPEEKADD

Adenosine receptor A3 [1] = target: T2, Adenosine receptor A3 (Mus musculus, UniProt Q61618); experiment: Displacement of [125I] N6-4-amino-3-iodobenzyl adenosine 5-N-methyluronamide from mouse A3A receptor stably expressed in HEK293 cell membrane by radioligand inhibition assay; format: cell membranes
T2 sequence (Q61618 whole entry): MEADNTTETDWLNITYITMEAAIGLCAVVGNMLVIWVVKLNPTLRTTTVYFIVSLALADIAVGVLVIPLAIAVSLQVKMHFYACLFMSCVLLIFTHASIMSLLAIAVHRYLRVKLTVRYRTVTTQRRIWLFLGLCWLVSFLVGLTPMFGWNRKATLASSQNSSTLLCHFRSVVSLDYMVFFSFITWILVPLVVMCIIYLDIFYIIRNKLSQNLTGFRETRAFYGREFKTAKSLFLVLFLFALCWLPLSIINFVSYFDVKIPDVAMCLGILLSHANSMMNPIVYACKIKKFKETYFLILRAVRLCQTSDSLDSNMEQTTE

Adenosine receptor A2a [2] = target: T3, Adenosine receptor A2a (Homo sapiens, UniProt P29274); experiment: Displacement of [3H]-2-p-2-(carboxyethyl)phenyl-ethylamino-5'-N-ethylcarboxamidoadenosine from human A2A receptor stably expressed in HEK293 cell membrane by radioligand inhibition assay; format: cell membranes
T3 sequence (P29274 whole entry): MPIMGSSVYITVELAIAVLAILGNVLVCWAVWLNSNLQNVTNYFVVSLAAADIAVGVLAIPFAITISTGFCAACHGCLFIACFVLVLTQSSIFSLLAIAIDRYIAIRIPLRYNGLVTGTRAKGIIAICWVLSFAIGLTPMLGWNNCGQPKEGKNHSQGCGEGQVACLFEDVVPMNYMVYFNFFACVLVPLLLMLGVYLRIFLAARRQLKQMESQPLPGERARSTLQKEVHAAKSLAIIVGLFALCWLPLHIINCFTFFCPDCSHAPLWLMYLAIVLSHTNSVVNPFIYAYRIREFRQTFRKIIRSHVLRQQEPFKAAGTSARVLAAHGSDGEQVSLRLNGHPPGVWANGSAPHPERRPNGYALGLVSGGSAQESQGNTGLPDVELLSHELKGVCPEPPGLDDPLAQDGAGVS

[3] = target: T4, Adenosine receptor A1 (Homo sapiens) (UniProt P30542); experiment: Binding affinity to human adenosine A1A receptor expressed in human HEK293 cell membrane at 10 uM by radioligand inhibition assay; format: cell membranes
T4 sequence (whole entry): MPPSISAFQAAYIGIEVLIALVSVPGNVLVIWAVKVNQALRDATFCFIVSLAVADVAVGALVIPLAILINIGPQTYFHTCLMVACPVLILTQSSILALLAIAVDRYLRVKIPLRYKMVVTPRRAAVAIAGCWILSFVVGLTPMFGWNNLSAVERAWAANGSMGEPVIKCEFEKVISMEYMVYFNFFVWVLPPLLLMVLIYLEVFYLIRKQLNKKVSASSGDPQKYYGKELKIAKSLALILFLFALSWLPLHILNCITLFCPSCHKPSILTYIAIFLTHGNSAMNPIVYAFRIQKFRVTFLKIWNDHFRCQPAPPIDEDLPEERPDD

[4] = target: T5, Adenosine receptor A1 (Mus musculus) (UniProt Q60612); experiment: Binding affinity to mouse adenosine A1A receptor expressed in human HEK293 cell membrane by radioligand inhibition assay; format: cell membranes; parameters: concentration or dose not given beside the values; details: concentration not given here
T5 sequence (whole entry): T1 sequence (Q60612 whole entry)

Adenosine receptor A2a [5] = target: T3, Adenosine receptor A2a; experiment: Binding affinity to human adenosine A2A receptor expressed in human HEK293 cell membrane at 10 uM by radioligand inhibition assay; format: cell membranes
Adenosine receptor A3 [6] = target: T6, Adenosine receptor A3 (Homo sapiens, UniProt P0DMS8); experiment: Displacement of [125I] N6-(4-amino-3-iodobenzyl)adenosine-5'-N-methyluronamide from human A3A receptor stably expressed in HEK293 cell membrane by radioligand inhibition assay; format: cell membranes
T6 sequence (P0DMS8 whole entry): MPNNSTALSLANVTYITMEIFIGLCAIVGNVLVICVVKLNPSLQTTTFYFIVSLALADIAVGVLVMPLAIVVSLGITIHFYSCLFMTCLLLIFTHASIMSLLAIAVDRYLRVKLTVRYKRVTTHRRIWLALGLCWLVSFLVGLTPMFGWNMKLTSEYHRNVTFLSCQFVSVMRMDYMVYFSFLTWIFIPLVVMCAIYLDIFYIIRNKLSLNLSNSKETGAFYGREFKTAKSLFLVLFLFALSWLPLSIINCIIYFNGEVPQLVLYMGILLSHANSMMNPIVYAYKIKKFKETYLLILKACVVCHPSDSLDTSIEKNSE

Adenosine receptor A3 [7] = target: T6, Adenosine receptor A3; experiment: Agonist activity at human adenosine A3A receptor stably expressed in HEK293 cells assessed as beta arrestin 2 recruitment potency by luciferase based NanoBiT assay; format: functional, cell-based
Adenosine receptor A3 [8] = target: T6, Adenosine receptor A3; experiment: Agonist activity at human adenosine A3A receptor stably expressed in HEK293 cells assessed as mini G-alpha recruitment potency by luciferase based NanoBiT assay; format: functional, cell-based

Row | pKi (Adenosine receptor A1) | pKi (Adenosine receptor A3 [1]) | pKi (Adenosine receptor A2a [2]) | inhibition [3] | inhibition [4] | inhibition (Adenosine receptor A2a [5]) | pKi (Adenosine receptor A3 [6]) | pEC50 (Adenosine receptor A3 [7]) | pEC50 (Adenosine receptor A3 [8]) | SMILES
1 | 6.07 | 8.27 | – | – | – | – | – | – | – | CNC(=O)[C@@]12C[C@@H]1[C@@H](n1cnc3c(NCCc4ccc(OC)c(OC)c4)nc(I)nc31)[C@H](O)[C@@H]2O
2 | 6.82 | 7.92 | 5.33 | – | – | – | – | – | – | CNC(=O)[C@@]12C[C@@H]1[C@@H](n1cnc3c(NCCc4ccc(OC)c(O)c4)nc(OCC4CC4)nc31)[C@H](O)[C@@H]2O
3 | – | 8.88 | – | – | – | 43% | 8.47 | – | – | CNC(=O)[C@@]12C[C@@H]1[C@@H](n1cnc3c(NCCc4ccc(O)c(OC)c4)nc(C#Cc4ccc(Br)s4)nc31)[C@H](O)[C@@H]2O
4 | – | – | 5.30 | 4% | – | – | 7.88 | – | – | COc1cc(CCNc2nc(OCC(C)C)nc3c2ncn3[C@H]2[C@H](O)[C@H](O)[C@@H]3C[C@@H]32)ccc1O
5 | 5.63 | – | 5.09 | – | – | – | – | – | – | CNC(=O)[C@@]12C[C@@H]1[C@@H](n1cnc3c(NCc4ccc(O)c(OC)c4)nc(C#Cc4ccc(Cl)s4)nc31)[C@H](O)[C@@H]2O
6 | 8.43 | 8.50 | – | – | – | 31% | 8.28 | 7.40 | 7.36 | CNC(=O)[C@@]12C[C@@H]1[C@@H](n1cnc3c(NCCc4ccc(O)c(OC)c4)nc(C#Cc4ccc(Cl)s4)nc31)[C@H](O)[C@@H]2O
7 | – | 8.27 | 4.99 | 59% | – | – | 8.41 | 7.30 | 7.41 | CNC(=O)[C@@]12C[C@@H]1[C@@H](n1cnc3c(NCCc4ccc(OC)c(O)c4)nc(OC)nc31)[C@H](O)[C@@H]2O
8 | – | 8.19 | – | – | – | – | – | – | – | CNC(=O)[C@@]12C[C@@H]1[C@@H](n1cnc3c(NCCc4ccc(OC)c(O)c4)nc(OCCCC4CCCCC4)nc31)[C@H](O)[C@@H]2O
9 | 6.32 | 8.30 | 5.31 | – | – | – | – | – | – | CNC(=O)[C@@]12C[C@@H]1[C@@H](n1cnc3c(NCCc4ccc(OC)c(O)c4)nc(OCCC(C)C)nc31)[C@H](O)[C@@H]2O
10 | – | – | – | – | – | 24% | 7.22 | – | – | CCOC(=O)[C@@]12C[C@@H]1[C@@H](n1cnc3c(NCCc4ccccc4)nc(C#Cc4ccc(Cl)s4)nc31)[C@H](O)[C@@H]2O
11 | 5.24 | 8.48 | – | 11% | – | 9% | 8.30 | – | – | CNC(=O)[C@@]12C[C@@H]1[C@@H](n1cnc3c(NCCc4ccc(O)c(OC)c4)nc(C#Cc4ccc(F)c(F)c4)nc31)[C@H](O)[C@@H]2O
12 | – | 8.68 | – | 30% | 61% | 35% | 8.48 | – | – | CNC(=O)[C@@]12C[C@@H]1[C@@H](n1cnc3c(NCCc4ccc(O)c(OC)c4)nc(C#Cc4ccsc4)nc31)[C@H](O)[C@@H]2O
13 | 6.32 | 8.65 | – | 46% | – | 43% | 8.20 | – | – | CNC(=O)[C@@]12C[C@@H]1[C@@H](n1cnc3c(NCCc4ccc(O)c(OC)c4)nc(I)nc31)[C@H](O)[C@@H]2O
14 | – | 8.60 | – | 31% | – | 6% | 7.20 | – | – | CNC(=O)[C@@]12C[C@@H]1[C@@H](n1cnc3c(NCCc4ccc(O)c(O)c4)nc(C#Cc4ccc(Br)s4)nc31)[C@H](O)[C@@H]2O
15 | – | – | 5.23 | – | – | – | 7.64 | – | – | O[C@@H]1[C@H](O)[C@@H]2C[C@@H]2[C@H]1n1cnc2c(NCCc3ccccc3)nc(I)nc21
16 | – | – | – | 27% | – | 30% | 9.24 | – | – | CNC(=O)[C@@]12C[C@@H]1[C@@H](n1cnc3c(NCCc4ccccc4)nc(C#Cc4ccccc4Cl)nc31)[C@H](O)[C@@H]2O

The remaining lines, values behind:

Row | SMILES | pKi (Adenosine receptor A1) | pKi (Adenosine receptor A3 [1]) | pKi (Adenosine receptor A2a [2]) | inhibition [3] | inhibition [4] | inhibition (Adenosine receptor A2a [5]) | pKi (Adenosine receptor A3 [6]) | pEC50 (Adenosine receptor A3 [7]) | pEC50 (Adenosine receptor A3 [8])
17 | CNC(=O)[C@@]12C[C@@H]1[C@@H](n1cnc3c(NCCc4ccc(O)c(OC)c4)nc(C#Cc4ccco4)nc31)[C@H](O)[C@@H]2O | – | 8.81 | – | 9% | 40% | 32% | 8.49 | – | –
18 | CNC(=O)[C@@]12C[C@@H]1[C@@H](n1cnc3c(NCCc4ccccc4)nc(C#Cc4ccc(Cl)s4)nc31)[C@H](O)[C@@H]2O | – | 8.72 | – | 4% | 42% | 49% | 8.47 | 7.19 | 7.19
19 | CCOC(=O)[C@@]12C[C@@H]1[C@@H](n1cnc3c(NCCc4ccc(OC)c(O)c4)nc(C#Cc4ccc(Cl)s4)nc31)[C@H](O)[C@@H]2O | – | 6.98 | – | 7% | 56% | 25% | 7.48 | – | –
20 | CNC(=O)[C@@]12C[C@@H]1[C@@H](n1cnc3c(NCCc4ccc(O)c(OC)c4)nc(C#Cc4ccc(F)s4)nc31)[C@H](O)[C@@H]2O | – | 8.84 | – | 2% | 48% | 32% | 8.48 | 7.60 | 7.63
21 | CNC(=O)[C@@]12C[C@@H]1[C@@H](n1cnc3c(NCCc4ccc(O)c(O)c4)nc(C#Cc4ccc(Cl)s4)nc31)[C@H](O)[C@@H]2O | – | 9.04 | – | 25% | – | 8% | 7.68 | – | –
22 | CNC(=O)[C@@]12C[C@@H]1[C@@H](n1cnc3c(NCCc4ccc(O)c(OC)c4)nc(C#Cc4cccs4)nc31)[C@H](O)[C@@H]2O | – | 8.90 | – | 12% | 47% | 37% | 8.48 | – | –
23 | CNC(=O)[C@@]12C[C@@H]1[C@@H](n1cnc3c(NCCc4ccc(O)c(OC)c4)nc(C#Cc4ccccc4)nc31)[C@H](O)[C@@H]2O | 5.29 | 8.81 | – | 2% | – | 28% | 9.25 | – | –
24 | CCOC(=O)[C@@]12C[C@@H]1[C@@H](n1cnc3c(NCCc4ccc(O)c(OC)c4)nc(C#Cc4ccc(Cl)s4)nc31)[C@H](O)[C@@H]2O | – | – | – | 0% | 57% | 33% | 7.43 | – | –
25 | CNC(=O)[C@@]12C[C@@H]1[C@@H](n1cnc3c(NCCc4ccc(OC)c(OC)c4)nc(C#Cc4ccc(Br)s4)nc31)[C@H](O)[C@@H]2O | – | – | – | – | – | 36% | 8.10 | – | –
26 | CNC(=O)[C@@]12C[C@@H]1[C@@H](n1cnc3c(NCCc4ccc(OC)c(O)c4)nc(C#Cc4ccc(Cl)s4)nc31)[C@H](O)[C@@H]2O | – | 8.77 | – | 0% | 44% | 34% | 8.08 | – | –
